Results published in patent US5462861A, “Method for improving enzyme activities with noble gases” (American Air Liquide, Chicago Research Center, priority 1993, dated 1995).
“Also recorded” adds a separate entry of the source.

Experiments:
Tyrosinase [1] = assay: Tyrosinase-L-tyrosine reaction, solution saturated with gas; type: biochemical, Mushroom; details: for effect: optimal reaction conditions, simple saturation of solution with gas, minus = inhibition; for effect on rate and final equilibrium of the tyrosinase-L-tyrosine reaction: various temperatures; for temperature dependence of the effect on tyrosinase: various temperatures (15-35° C.)
Method: (§1) Solution preparation: Optimized w/v solutions are prepared by diluting the enzyme (units/ml) and the substrate (μg/ml) in appropriate buffer (optimized pH and molarity for enzymes). The solutions are used for gas experiments at once to avoid loss of activity. Various enzyme and substrate concentrations and inhibitors may be employed. Physical parameters are varied as required.
(§2) Preparation of samples: Cuvets are filled with 2 ml of substrate solution by means of a gas-tight syringe. Gas-tight serum vials are filled with enzyme and solvent. Sufficient gas is consecutively bubbled in the cuvets and serum vials, with a 1-hr wait between injections to maximize equilibration of gas. All syringes and dead spaces are purged before filling with the appropriate gas. The amount of gas used has been measured sufficient to saturate the solution required.
Spectrophotometric time-drive, reaction rate, and kinetic analyses: cuvets and serum vials are saturated with gas 40 minutes before the run. A gas-filled syringe is used to retrieve 0.5 ml of enzyme solution to avoid air contact. The 0.5 ml syringe injections of enzyme are made simultaneously to effect a common starting time to for the samples. 7 gases (air, O2, N2, Ne, Ar, Kr, Xe) are run at various temperatures each (from 0° to 60° ). Changes in the rate or final equilibrium of the reaction versus ambient air are recorded. Comparison is also made with added oxygen, and with deoxygenation. Some samples are also prepared under pressure.
1. Solution preparation: 10% w/v solutions are prepared by diluting the enzyme (units/ml) and the substrate (μg/ml) in Sodium Phosphate buffer (pH 6.85, optimized pH for enzymes). The solutions are stored in refrigerator (0°-5° C.) and used for gas experiments within 2 or 3 days to avoid loss of activity.
6. Preparation of run samples: Acrylic cuvets are filled with 2 ml of substrate solution by means of a gas tight syringe. Gastight serum vials are filled with enzyme. 3×10 cc of gas are consecutively bubbled in the cuvets and serum vials, with a […] between injections. This represents a 10× displacement of dead volume while maximizing equilibration of gas. All syringes and dead spaces are purged before filling with the appropriate gas. After the third 10 cc injection, the cuvets and serum vials are left overnight under two 10 cc syringes filled with the appropriate gas in refrigerator at 0°-5° C.
8. Spectrophotometric runs: The cuvets and serum vials are filled with 10 cc of gas 40 min before the run. A gas-filled syringe is used to retrieve 0.5 ml of enzyme solution to avoid air contact. The 0.5 ml syringe injections of enzyme are made simultaneously to effect a common starting time t0 for the samples. Seven gases (air, O2, N2, Ne, Ar, Kr, Xe) are run at five temperatures each (15° C., 20° C., 25° C., 30° C., 35° C.). Changes in the rate or final equilibrium of the reaction versus ambient air are recorded.
The optimal conditions are [E]/[S] (100 μg/ml)/(100 μg/ml), the changes in absorbance being observed at 305 nm.
3×10 cc of gas are bubbled in the silicone-sealed cuvets and serum vials (T-3754, T-7755), with an interval of 20 min (at 0°-5°C.) between each gas injection.
a. The silicone-sealed cuvets are removed from the refrigerator 40 min before the experimental run, filled with 10 cc of gas and left at room temperature (26° C.) under two 10 cc syringes.
The 0.5 ml syringe injections of enzyme are made simultaneously to effect a common starting time t0 for the samples.
200 points, 18 s intervals 1 hr run

lyase enzymes = assay: Lyases, effects for the class; type: biochemical
Method: as §1
as §2, with “All syringes and dead spaces are purged before filling with the appropriate gas.” left out
(§3) Spectrophotometric time-drive, reaction rate, and kinetic analyses: cuvets and serum vials are saturated with gas 40 minutes before the run. […] Changes in the rate or final equilibrium of the reaction versus ambient air are recorded. […]
(§4) In a complete experiment, an enzyme at optimal pH and buffering salt concentration is reacted with 5 substrate concentrations in solution with noble gas at 1 atm. […] The reaction is monitored colorimetrically in a scanning spectrophotometer in real time, and the signals are treated mathematically to obtain rate and yield differences. […]

transferase enzymes = assay: Transferases, effects for the class; type: biochemical
Method: as §1
as §2, with “All syringes and dead spaces are purged before filling with the appropriate gas.” left out
as §3, §4

lactate dehydrogenase = assay: Lactate dehydrogenase activity under gas; type: biochemical; details: 10° C., FIG. 42
Method: Solution preparation: Optimized w/v solutions are prepared by diluting the enzyme (units/ml) and the substrate (μg/ml) in appropriate buffer (optimized pH and molarity for enzymes). The solutions are used for gas experiments at once to avoid loss of activity. Various enzyme and substrate concentrations and inhibitors may be employed. Physical parameters are varied as required. […] Gas-tight serum vials are filled with enzyme and solvent. Sufficient gas is consecutively bubbled in the cuvets and serum vials, with a 1-hr wait between injections to maximize equilibration of gas. All syringes and dead spaces are purged before filling with the appropriate gas. The amount of gas used has been measured sufficient to saturate the solution required. Spectrophotometric time-drive, reaction rate, and kinetic analyses: cuvets and serum vials are saturated with gas 40 minutes before the run. A gas-filled syringe is used to retrieve 0.5 ml of enzyme solution to avoid air contact. […] Changes in the rate or final equilibrium of the reaction versus ambient air are recorded. Comparison is also made with added oxygen, and with deoxygenation. Some samples are also prepared under pressure.

hydrolases = assay: Hydrolases, effects for the class; type: biochemical
Method: as §1
as §2, with “All syringes and dead spaces are purged before filling with the appropriate gas.” left out
as §3, §4

particulate sialidase = details: Sandhoff et al, FEBS Letters 1976; cited from earlier work
tyrosinase [2] = assay: Kinetic analyses, tyrosinase; type: biochemical
Method: Absorbance curve data as previously exemplified reveal differences in enzymatic activity under different gas atmospheres both in terms of yield and in terms of rate. Yield can be calculated after equilibrium is reached by comparative curve differencing, and through formal linearization and calculation--which are also necessary for rate calculations. Rate differences are calculated using commercially available computer programs (ENZFITTER, GRAFIT, ENZPACK, PEAKFIT) which transform the initial uv/vis absorbance data curve (in these examples, a power curve) into straight lines (linear regression of power curve). These lines may be expressed as a mathematical equation in which the slope is approximately the rate, and the limit Y-intercept is approximately the yield. […] The examples and figures described below represent these steps in exemplary form.
FIG. 51, Table 6, FIG. 52 and Table 7 illustrate data from the first 160 seconds of a single tyrosinase experiment expressed as power curves for air, then for xenon gassing.

## [Ar] [Ar, argon]
Tyrosinase [1]; 15° C.
  effect on tyrosinase-L-tyrosine reaction: slightly inhibits equilibrium
Tyrosinase [1]; 20° C.
  effect on tyrosinase-L-tyrosine reaction: effective inhibitors; also recorded: strong inhibition; also recorded: dramatically inhibit; also recorded: better inhibition by argon at 20 °C than neon; also recorded: inhibiting effects
Tyrosinase [1]; 25° C.
  effect on tyrosinase-L-tyrosine reaction: inhibit at a lesser level than the other noble gases; also recorded: less inhibition at 25 °C than neon; also recorded: inhibitory effect
  effect: -60%
Tyrosinase [1]; 30° C.
  effect on tyrosinase-L-tyrosine reaction: inhibitory effect
Tyrosinase [1]
  effect on rate and final equilibrium of the tyrosinase-L-tyrosine reaction: inhibition; also recorded: surprisingly active at low temperatures
Lyase enzymes
  effect on lyases: least such effect

## N#N [N2, nitrogen, reference compound]
Tyrosinase [1]; 20° C., listed as Nitrogen
  effect on tyrosinase-L-tyrosine reaction: inhibits the reaction fairly well
Tyrosinase [1]; 20° C., listed as nitrogen
  effect on tyrosinase-L-tyrosine reaction: lesser inhibitory effect
Tyrosinase [1]; 25° C.
  effect on tyrosinase-L-tyrosine reaction: inhibit at a lesser level than the other noble gases
Tyrosinase [1]
  effect on rate and final equilibrium of the tyrosinase-L-tyrosine reaction: effective in inhibiting tyrosinase activity; also recorded: inhibition
  temperature dependence of the effect on tyrosinase: transitional maxima is observed after 20 °C

## [Ne] [Ne, neon]
Transferase enzymes
  effect on transferases: lowest inhibitory or enhancing effect
Tyrosinase [1]; 15° C.
  effect on tyrosinase-L-tyrosine reaction: strong effects; also recorded: large inhibitory effect
Tyrosinase [1]; 20° C.
  effect on tyrosinase-L-tyrosine reaction: effective inhibitors; also recorded: dramatically inhibit; also recorded: inhibiting effects
Tyrosinase [1]; 25° C.
  effect on tyrosinase-L-tyrosine reaction: inhibitory effect
  effect: -46.7%
Tyrosinase [1]; 30° C.
  effect on tyrosinase-L-tyrosine reaction: inhibitory effect
Tyrosinase [1]
  temperature dependence of the effect on tyrosinase: activity transition occuring between 20 °C and 25 °C; also recorded: positively temperature dependent
Lactate dehydrogenase
  effect on lactate dehydrogenase: inhibiting

## [Xe] [Xe, xenon]
hydrolases
  effect on hydrolases: largest enhancing effect
Tyrosinase [1]; 15° C.
  effect on tyrosinase-L-tyrosine reaction: small, but significant inhibitory effect; also recorded: small but significant inhibitory effect
Tyrosinase [1]; 20° C.
  effect on tyrosinase-L-tyrosine reaction: inhibits the tyrosinase-L-tyrosine reaction quite strongly; also recorded: dramatically inhibit; also recorded: inhibiting effects
Tyrosinase [1]; 25° C.
  effect on tyrosinase-L-tyrosine reaction: inhibitory effect
  effect: -73%
Tyrosinase [1]; 26° C.
  effect on tyrosinase: very large inhibition; also recorded: optimal inhibition curve
Tyrosinase [1]; 26° C., FIG. 6
  area of run curve: ~3037 μ
Tyrosinase [1]; 26° C., FIG. 6, estimated from curve areas
  inhibition of air rate: ~72.92%
Tyrosinase [1]; 26° C., FIG. 6, 60 min
  total area as % of air area: ~27.08%
Tyrosinase [1]; 26° C., FIG. 6, total = air + xenon areas
  % total area: ~21.31
Tyrosinase [1]; 30° C., listed as Xenon
  effect on tyrosinase-L-tyrosine reaction: inhibits the reaction much better than other gases
Tyrosinase [1]; 30° C., listed as xenon
  effect on tyrosinase-L-tyrosine reaction: inhibitory effect
Tyrosinase [1]; equal w/w, FIG. 5
  effect on tyrosinase: inhibition
Tyrosinase [1]; listed as Xenon
  temperature dependence of the effect on tyrosinase: interacts inversely with temperature
  effect on rate and final equilibrium of the tyrosinase-L-tyrosine reaction: significantly inhibits the rate and depresses the final equilibrium
Tyrosinase [1]; listed as xenon
  temperature dependence of the effect on tyrosinase: at least two activity transitions; also recorded: large difference in xenon activity between 20 °C and 25 °C; also recorded: interacts inversely with temperature; also recorded: large difference in xenon activity between 20° and 25 °C
  effect on rate and final equilibrium of the tyrosinase-L-tyrosine reaction: inhibits the equilibrium of the tyrosinase-L-tyrosine reaction better than other gases; also recorded: inhibition
Lactate dehydrogenase
  effect on lactate dehydrogenase: enhancing
Particulate sialidase
  effect on activity of particulate sialidase: enhance the activity
Tyrosinase [2]; Michaelis-Menten, Gas 5: Xenon, Table 7, first 160 seconds
  V max: 0.0001
Tyrosinase [2]; [S] 10.0000
  Y, Calculated: -0.0001
  Y, Gas 5: Xenon (rate): 0.0007
Tyrosinase [2]; [S] 20.0000
  Y, Calculated: -0.0003
  Y, Gas 5: Xenon (rate): 0.0019
Tyrosinase [2]; [S] 30.0000
  Y, Calculated: 0.0017
  Y, Gas 5: Xenon (rate): 0.0019
Tyrosinase [2]; [S] 40.0000
  Y, Calculated: 0.0004
  Y, Gas 5: Xenon (rate): 0.0019
Tyrosinase [2]; [S] 50.0000
  Y, Calculated: 0.0003
  Y, Gas 5: Xenon (rate): 0.0004
Tyrosinase [2]; linearized rate regression and Michaelis-Menten calculations
  effect on tyrosinase activity: strongly inhibiting tyrosinase activity
Lyase enzymes
  effect on lyases: largest enhancing effect

## [Kr] [Kr, krypton]
Transferase enzymes
  effect on transferases: largest inhibitory or effect
hydrolases
  effect on hydrolases: least such effect
Tyrosinase [1]; 15° C.
  effect on tyrosinase-L-tyrosine reaction: strong effects; also recorded: large inhibitory effect
Tyrosinase [1]; 20° C., listed as Krypton
  effect on tyrosinase-L-tyrosine reaction: lesser inhibitory effect
Tyrosinase [1]; 20° C., listed as krypton
  effect on tyrosinase-L-tyrosine reaction: effective inhibitors; also recorded: almost of equal effect; also recorded: lesser effect; also recorded: inhibiting effects
Tyrosinase [1]; 25° C.
  effect on tyrosinase-L-tyrosine reaction: inhibitory effect
  effect: -73%
Tyrosinase [1]; 30° C.
  effect on tyrosinase-L-tyrosine reaction: inhibitory effect
Tyrosinase [1]
  effect on rate and final equilibrium of the tyrosinase-L-tyrosine reaction: inhibition
  temperature dependence of the effect on tyrosinase: direct inverse (negative) relationship; also recorded: activity transition occuring between 20 °C and 25 °C
